According to the RepoRT retention time repository:
Structures can show the parent of a compound that is named as a salt.

Test: RP, Waters ACQUITY Premier BEH C18, 100 × 2.1 mm, 1.7 µm, 40 °C, 0.3 to 0.4 mL/min, estimated dead time 0.73 min; A: water + 0.1% formic acid; B: acetonitrile + 0.1% formic acid; gradient (min/%B) 0/0.5 0.1/0.5 10/80 10.1/99.5 12/0.5 12.1/0.5 14.5/0.5
Details: stereoisomer not certain

| SMILES | LC retention time [min] |
| --- | --- |
| CCCCCCCCCC(=O)OCC(COP(=O)([O-])OCC[N+](C)(C)C)OC(=O)CCCCCCCCC (centres undefined) [DIDECANOYL-GLYCEROPHOSPHOCHOLINE] | 8.51 |
| COc1cc(CNC(=O)CCCCCCC(C)C)ccc1O [DIHYDROCAPSAICIN] | 7.49 |
| COc1cc(CCC(=O)O)ccc1O [DIHYDROFERULIC ACID] | 5.08 |
| CC1CNC(=O)NC1=O (centres undefined) [DIHYDROTHYMINE] | 1.26 |
| O=C1CCNC(=O)N1 [DIHYDROURACIL] | 1.37 |
| COC(=O)CCC(=O)OC [DIMETHYL SUCCINATE] | 3.97 |
| COc1ccc(-c2cc(=O)c3c(O)cc(O)cc3o2)cc1O [DIOSMETIN] | 6.12 |
| NCCc1ccc(O)c(O)c1 [DOPAMINE] | 1.74 |
| Cc1cc(O)c2c(c1)C(=O)c1cc(O)cc(O)c1C2=O [EMODIN] | 7.52 |
| OCC(Cc1cccc(O)c1)C(CO)Cc1cccc(O)c1 (centres undefined) [ENTERODIOL] | 5.95 |
| CC12CCC3c4ccc(O)cc4CCC3C1CCC2O (stereo not drawn) [ESTRADIOL-17ALPHA] | 7.15 |
| CCC(C(=O)O)C(=O)O [ETHYLMALONATE] | 3.85 |
| Cc1cc2nc3c(=O)[nH]c(=O)nc-3n(CC(O)C(O)C(O)COP(=O)(O)OP(=O)(O)OCC3OC(n4cnc5c(N)ncnc54)C(O)C3O)c2cc1C (centres undefined) [FAD] | 4.15 |
| O=c1cc(-c2ccccc2)oc2ccccc12 [FLAVONE] | 7.23 |
| O=C(O)c1cc(O)c(O)c(O)c1 [GALLIC ACID] | 1.34 |
| Cc1c(O)cc2c(c1C)OC(C)(CCC(=O)O)CC2 (centres undefined) [GAMMA-CEHC] | 6.69 |
| NC(CCC(=O)NC(Cc1ccccc1)C(=O)O)C(=O)O (centres undefined) [GAMMA-GLUTAMYLPHENYLALANINE] | 3.65 |
| O=C(O)C1=COC(OC2OC(CO)C(O)C(O)C2O)C2C(CO)=CCC12 (centres undefined) [GENIPOSIDIC ACID] | 1.89 |
| O=c1c(-c2ccc(O)cc2)coc2cc(O)cc(O)c12 [GENISTEIN] | 6.07 |

| SMILES | LC retention time [min] |
| --- | --- |
| O=c1c(-c2ccc(O)cc2)coc2cc(OC3OC(CO)C(O)C(O)C3O)cc(O)c12 (centres undefined) [GENISTIN] | 4.57 |
| C=C1CC23CC1(O)CCC2C12C=CC(O)C(C)(C(=O)O1)C2C3C(=O)O (centres undefined) [GIBBERELLIN A3] | 5.05 |
| CCCCCC(O)CC(=O)CCc1ccc(O)c(OC)c1 (centres undefined) [GINGEROL] | 7.34 |
| CC1C(=O)OC2C(O)C34C5OC(=O)C3(OC3OC(=O)C(O)C34C(C(C)(C)C)C5O)C12O (centres undefined) [GINKGOLIDE C] | 4.74 |
| O=C(O)C(O)CO (centres undefined) [GLYCERATE] | 0.911 |
| CCCCCCCCCCCCCC(=O)OCC(O)CO (centres undefined) [GLYCEROL-MYRISTATE] | 8.67 |
| CC(CCC(=O)NCC(=O)O)C1CCC2C3C(O)CC4CC(O)CCC4(C)C3CC(O)C12C (centres undefined) [GLYCOCHOLATE] | 6.68 |
| CC1(C(=O)O)CCC2(C)CCC3(C)C(=CC(=O)C4C5(C)CCC(OC6OC(C(=O)O)C(O)C(O)C6OC6OC(C(=O)O)C(O)C(O)C6O)C(C)(C)C5CCC43C)C2C1 (centres undefined) [GLYCYRRHIZIN] | 6.4 |
| Nc1nc2nc[nH]c2c(=O)[nH]1 [GUANINE] | 1.29 |
| Nc1nc2c(ncn2C2OC(COP(=O)(O)OP(=O)(O)OC3OC(CO)C(O)C(O)C3O)C(O)C2O)c(=O)[nH]1 (centres undefined) [GUANOSINE DIPHOSPHATE MANNOSE] | 1.37 |
| COc1ccc2c3c([nH]c2c1)C(C)=NCC3 [HARMALINE] | 4.51 |
| Cc1nccc2c1[nH]c1ccccc12 [HARMAN] | 4.24 |
| COc1ccc(C2CC(=O)c3c(O)cc(OC4OC(CO)C(O)C(O)C4OC4OC(C)C(O)C(O)C4O)cc3O2)cc1O (centres undefined) [HESPERETIN 7-NEOHESPERIDOSIDE] | 4.83 |
| COc1ccc(C2CC(=O)c3c(O)cc(O)cc3O2)cc1O (centres undefined) [HESPERETIN] | 6.26 |
| COc1ccc(C2CC(=O)c3c(O)cc(OC4OC(COC5OC(C)C(O)C(O)C5O)C(O)C(O)C4O)cc3O2)cc1O (centres undefined) [HESPERIDINE] | 4.77 |
| CCCCCC(=O)NCC(=O)O [HEXANOYLGLYCINE] | 5.2 |
| NC1CCSC1=O (centres undefined) [HOMOCYSTEINE THIOLACTONE] | 0.939 |
| NC(CCS)C(=O)O (centres undefined) [HOMOCYSTEINE] | 0.963 |
| NC(CCSSCCC(N)C(=O)O)C(=O)O (centres undefined) [HOMOCYSTINE] | 0.958 |

| SMILES | LC retention time [min] |
| --- | --- |
| COc1cc(CC(=O)O)ccc1O [HOMOVANILLATE] | 4.66 |
| Oc1ccc(O)cc1 [HYDROQUINONE] | 4.46 |
| Nc1c(O)cccc1C(=O)CC(N)C(=O)O (centres undefined) [HYDROXYKYNURENINE] | 2.07 |
| O=c1[nH]cnc2nc[nH]c12 [HYPOXANTHINE] | 1.76 |
| CC(C)=CCOc1c2occc2cc2ccc(=O)oc12 [IMPERATORIN] | 7.46 |
| OCCc1c[nH]c2ccccc12 [INDOLE-3-ETHANOL] | 5.81 |
| O=C(O)CCc1c[nH]c2ccccc12 [INDOLE-3-PROPIONIC ACID] | 6.22 |
| O=CCc1c[nH]c2ccccc12 [INDOLEACETALDEHYDE] | 6.28 |
| O=C(O)C=Cc1c[nH]c2ccccc12 [INDOLEACRYLIC ACID] | 5.61 |
| O=c1[nH]cnc2c1ncn2C1OC(CO)C(O)C1O (centres undefined) [INOSINE] | 3.37 |
| CC(C)C(=O)OC(CC(=O)[O-])C[N+](C)(C)C [ISOBUTYRYL-L-CARNITINE] | 3.82 |
| O=C(O)CC(C(=O)O)C(O)C(=O)O (centres undefined) [ISOCITRATE] | 1.16 |
| COc1cc2c(c(O)c1C(=O)C=Cc1ccc(O)cc1)C(O)CC(C)(C)O2 (centres undefined) [ISOXANTHOHUMOL B] | 6.64 |
| Nc1nc2[nH]c(=O)cnc2c(=O)[nH]1 [ISOXANTHOPTERIN] | 1.02 |
| CCCCCCCCCCCC(=O)OC(CC(=O)O)C[N+](C)(C)C.[Cl-] (centres undefined) [ISTD_LAUROYL-CARNITINE-D3] | 7.14 |
| CSCCC(N)C(=O)O (centres undefined) [ISTD_METHIONINE-METHYL-D3] | 1.46 |
| C=C(CC(=O)O)C(=O)O [ITACONATE] | 3.67 |
| O=c1cc(CO)occ1O [KOJIC ACID] | 1.17 |

The next lines start with the values.

| LC retention time [min] | SMILES |
| --- | --- |
| 5.97 | O=C1c2c(O)cc(O)cc2OCC1c1ccc(O)cc1 (centres undefined) [DIHYDROGENISTEIN] |
| 3.97 | CC(C)(C(=O)O)C(=O)O [DIMETHYLMALONIC ACID] |
| 1.82 | Cc1cn(C2CC(O)C(COP(=O)(O)OP(=O)(O)OC3OC(CO)C(O)C(O)C3O)O2)c(=O)[nH]c1=O [DTDP-D-GLUCOSE] |
| 10 | CCCCCCCCC=CCCCCCCCC(=O)O [ELAIDATE] |
| 6.68 | O=C1OCC(Cc2cccc(O)c2)C1Cc1cccc(O)c1 (centres undefined) [ENTEROLACTONE] |
| 6.57 | Oc1ccc(C2COc3cc(O)ccc3C2)cc1 (centres undefined) [EQUOL] |
| 7.2 | CCOC(=O)Cc1c[nH]c2ccccc12 [ETHYL 3-INDOLEACETATE] |
| 5.17 | COc1cc(C=CC(=O)O)ccc1O [FERULATE] |
| 3.73 | Cc1cc2nc3c(=O)[nH]c(=O)nc-3n(CC(O)C(O)C(O)COP(=O)(O)O)c2cc1C (centres undefined) [FLAVIN MONONUCLEOTIDE] |
| 4.02 | Nc1nc2ncc(CNc3ccc(C(=O)NC(CCC(=O)O)C(=O)O)cc3)nc2c(=O)[nH]1 (centres undefined) [FOLATE] |
| 6.65 | COc1ccc(-c2coc3cc(O)ccc3c2=O)cc1 [FORMONONETIN] |
| 6.82 | CC(CC(=O)CC(C)C1CC(O)C2(C)C3=C(C(=O)CC12C)C1(C)CCC(=O)C(C)(C)C1CC3O)C(=O)O (centres undefined) [GANODERIC ACID A] |
| 5.66 | CC1C(=O)OC2CC34C5CC(C(C)(C)C)C36C(OC(=O)C6O)OC4(C(=O)O5)C21O (centres undefined) [GINKGOLIDE A] |
| 5.64 | CC1C(=O)OC2C(O)C34C5CC(C(C)(C)C)C36C(OC(=O)C6O)OC4(C(=O)O5)C12O (centres undefined) [GINKGOLIDE B] |
| 3.5 | O=C(O)CCCC(=O)O [GLUTARATE] |
| 8.08 | CC1(C(=O)O)CCC2(C)CCC3(C)C(=CC(=O)C4C5(C)CCC(O)C(C)(C)C5CCC43C)C2C1 (centres undefined) [GLYCYRRHETINIC ACID] |
| 1.57 | Nc1nc2c(ncn2C2OC(COP(=O)(O)O)C(O)C2O)c(=O)[nH]1 (centres undefined) [GUANOSINE MONOPHOSPHATE] |

| LC retention time [min] | SMILES |
| --- | --- |
| 3.37 | Nc1nc2c(ncn2C2OC(CO)C(O)C2O)c(=O)[nH]1 (centres undefined) [GUANOSINE] |
| 7.67 | O=C(O)CCCCCCCCCCCCCCC(=O)O [HEXADECANEDIOIC ACID] |
| 4.57 | O=C(O)CNC(=O)c1ccccc1 [HIPPURATE] |
| 3.66 | O=C(O)Cc1cc(O)ccc1O [HOMOGENTISATE] |
| 5.34 | COc1ccc(CC(=O)O)cc1OC [HOMOVERATRIC ACID] |
| 4.88 | CC(C)CC(O)C(=O)O (centres undefined) [HYDROXYISOCAPROIC ACID] |
| 4.05 | O=C(O)C(O)Cc1ccc(O)cc1 (centres undefined) [HYDROXYPHENYLLACTATE] |
| 3.89 | OCCc1ccc(O)c(O)c1 [HYDROXYTYROSOL] |
| 6.98 | CC(CCC(=O)O)C1CCC2C3C(O)C(O)C4CC(O)CCC4(C)C3CCC12C (centres undefined) [HYOCHOLIC ACID] |
| 5.72 | O=C(O)Cc1c[nH]c2ccccc12 [INDOLEACETIC ACID] |
| 4.58 | O=S(=O)(O)Oc1c[nH]c2ccccc12 [INDOXYL SULFATE] |
| 3.67 | CC(C)C(=O)O [ISOBUTYRATE] |
| 4.39 | CC(C)CC(=O)OC(CC(=O)[O-])C[N+](C)(C)C (centres undefined) [ISOVALERYLCARNITINE] |
| 0.888 | O=CC(O)C(O)C(O)C(O)CO (stereo not drawn) [ISTD_ D(+)-GLUCOSE-13C6] |
| 6.13 | O=c1c(O)c(-c2ccc(O)cc2)oc2cc(O)cc(O)c12 [KAEMPFEROL] |
| 4.02 | CC(C)CC(=O)C(=O)O [KETOLEUCINE] |
